We go through one molecule from patent publication US10202579B2, “Methods for producing mammalian pluripotent stem cell-derived endodermal cells” (Takara Bio Europe AB, priority 2012, dated 2019).

The assay deals with hPSC lines P11032, SA181 and P11012. Nature of the assay: DE differentiation of 3 hPSC lines with 5-aza-2-deoxycytidine or 5-azacytidine, qRT-PCR marker expression (Example 5). In kind it is cell-based, human. The following applies: 1 μM on day 2-3. Here is the method:
Following the basic protocols A (hPSC lines P11032, and SA181) or B (hPSC line P11012), cells derived from 3 different hPSC lines were treated with either 10 nM 5-aza-2-deoxycytidine or 1 μM 5-azacytidine on day 2-3 during the hPS differentiation into definitive endodem.
For analysis of mRNA expression, hESC- and hiPSC-derived DE-cells were harvested on day 7 of the protocol and gene expression was analysed using qRT-PCR, normalised to the house-keeping gene CREBBP, and the results presented as relative quantification normalised to a calibrator.
In general terms: In qPCR the cycle at which signal appears reflects the starting amount.

Turning to `Nc1ncn([C@@H]2O[C@H](CO)[C@@H](O)[C@H]2O)c(=O)n1` [5-azacytidine], where the note is “day 7”, the “mRNA expression of the DE marker Cxcr4” value is on record as “No significant changes” and the “mRNA expression of the DE marker Sox17” value is “No significant changes”. Where the note is “day 7, vs without treatment”, the “Nanog mRNA” value is on record as “significantly decreased” and the “Oct4 mRNA” value was “significantly decreased”. In addition, the “Homogeneity of derived DE population” value (lines give heterogeneous DE if untreated) is listed as “allowed derivation of a homogeneous DE population”.
